Tested on: 521955-158-R2-J5-PDC complex spheroids, viability
Assay: Anticancer human tumor 521955-158-R2-J5-PDC patient-derived pancreatic carcinoma cell line growth inhibition [RAS]
Conditions: for IC50: curve of first compound; for viability, T/C: stronger effect = lower value; active = viability on the fitted dose curve at most 10% of control; inactive = the rest
Source text: RAS pathway inhibitors in Combinations in Complex Spheroids
A high-throughput screen of multi-cell type tumor spheroids was designed to identify active combinations of RAS pathway inhibitors and targeted small molecules. Complex spheroids include a stromal component modeled by human endothelial cells (HUVEC) and fibroblasts modeled by human mesenchymal stem cells (MSCs). The concentration ranges selected for each drug and investigational agent were based upon clinically achievable concentrations if the clinical Cmax of the agent was known.
Compounds. The drugs and investigational agents: abemaciclib (NSC768073), cobimetinib (NSC768068), divarasib (GDC6063, NSC841802), docetaxel (NSC628503), GDC-1971 (RLY-1971, NSC841576), gemcitabine (NSC613327), inavolisib (NSC800729), ipatasertib (NSC767898), KB-0742 (NSC834161), MRTX-1133 (NSC836407), osimertinib (NSC779217), RMC-4630 (NSC839698), RMC-6236 (NSC851965), RMC-6291 (NSC852671), Ro-3306 (NSC812927), sapanisertib (NSC764658), SN-38 (NSC673596), staurosporine (NSC755774), SY5609 (NSC837396), and tovorafenib (DAY101, NSC766906), were obtained from the National Cancer Institute (NCI) Developmental Therapeutics Program Chemical Repository. The FDA-approved anticancer drug set is available from the NCI Developmental Therapeutics Program. […] The stock solutions were prepared in dimethyl sulfoxide (DMSO, Sigma-Aldrich, St. Louis, MO, cat. D2650) at 800-fold the tested concentration and stored at -70 degrees C prior to their use. All drugs and investigational agents were tested over a range starting from a high concentration at or near the clinical Cmax and decreasing in half-log increments. If the clinical Cmax for an agent had not been determined, the highest concentration tested was 10 microM.
Cell Culture. All cells were maintained in an incubator at 37 degrees C and 5% CO2 with 95% humidity. The PDC lines were cultured according to standard operating procedures established by the NCI PDMR. All PDCs were thawed and cultured in Matrigel-coated flasks prepared with a working solution of 1X Ham's F-12 nutrient mix, without supplementation (Invitrogen, Waltham, MA, cat. 11765054), 100 U/mL penicillin-streptomycin (Invitrogen, cat. 15140122), and 2.5% Matrigel (Corning Inc., Corning, NY, cat. 354248) for the first three passages. The 362531-283-R-J2-PDC and 782815-120-R-J1-PDC lines were cultured in 6C/Colon 1B media, which includes advanced DMEM/F-12 (Thermo Fisher Scientific, cat. 12634028), 10 mM HEPES (Thermo Fisher Scientific, cat. 15630080), 1X GlutaMAX supplement (Thermo Fisher Scientific, cat. 35050061), 0.1 mg/mL primocin (InvivoGen, San Diego, CA, cat. ant-pm-2), 10% defined fetal bovine serum, heat inactivated (HyClone Laboratories Inc., Logan, UT, cat. SH30070.03HI), 50% L-WRN conditioned media (ATCC, cat. CRL-3276), 1.25 mM N-Acetyl-L-cysteine (Sigma-Aldrich, cat. A9165), 10 mM nicotinamide (Sigma-Aldrich, cat. N0636), 1X B-27 supplement (Thermo Fisher Scientific, cat. 17504044), 1X N-2 supplement (Thermo Fisher Scientific, cat. 17502048), 50 ng/mL human EGF (Thermo Fisher Scientific, cat. PHG0311), and 10 microM Y-27632 dihydrochloride (Tocris Bioscience, cat. 1254). The K12877-001-R-J1-PDC line was cultured in 6I media, which includes all 6C/Colon 1B media plus 10 ng/mL human FGF-10 (PeproTech, cat. 100-26), 1 ng/mL human FGF-2 (PeproTech, cat. 100-18B), 1 µM prostaglandin E2 (Tocris Bioscience, cat. 2296), […] hydrocortisone (Sigma-Aldrich, cat. H4001), and […] bovine insulin (Sigma-Aldrich, cat. I6634). The K86415-001-R-J1-PDC line was cultured in 6D media, which includes all 6C/Colon 1B media components minus the L-WRN conditioned media. The 485176-168-R4-J1-PDC was cultured in PANC media, which includes all 6C/Colon 1B media plus 100 ng/mL human FGF-10 (PeproTech, cat. 100-26), 500 nM SB-431542 (Selleckchem, cat. S1067), and 10 nM gastrin (Tocris Bioscience, cat. 3006). […]
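Note: compound exposure lasted seven days before the viability read.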
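Throughout, for viability, T/C: spheroids also contain HUVEC endothelial cells and mesenchymal stem cells as stroma.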

C[C@@H](NC(=O)c1ncnc(N)c1Cl)c1ncc(C(=O)Nc2cc(C(F)(F)F)c(Cl)cn2)s1 + C#Cc1c(F)ccc2cc(O)cc(-c3ncc4c(N5CC6CCC(C5)N6)nc(OCC56CCCN5CC(F)C6)nc4c3F)c12
493 nM: IC50 (second compound 1 µM)
< 31.6 nM: IC50 (second compound 3.16 µM) | IC50 (second compound 10 µM)
531 nM: IC50 (second compound 0.1 µM)
3290 nM: IC50 (second compound 0.316 µM)
inactive: viability, T/C (second compound 0.0316 µM, first compound 0.0316 µM) 57.8% | viability, T/C (second compound 0.0316 µM, first compound 0.1 µM) 58.3% | viability, T/C (second compound 0.0316 µM, first compound 0.316 µM) 59.8% | viability, T/C (second compound 0.0316 µM, first compound 1 µM) 54.3% | viability, T/C (second compound 0.0316 µM, first compound 3.16 µM) 57.4% | viability, T/C (second compound 0.0316 µM, first compound 10 µM) 46% | viability, T/C (second compound 0.1 µM, first compound 0.0316 µM) 65.5% | viability, T/C (second compound 0.1 µM, first compound 0.1 µM) 58.3% | viability, T/C (second compound 0.1 µM, first compound 0.316 µM) 46.9% | viability, T/C (second compound 0.1 µM, first compound 1 µM) 47.3% | viability, T/C (second compound 0.1 µM, first compound 3.16 µM) 57.2% | viability, T/C (second compound 0.1 µM, first compound 10 µM) 42.3% | viability, T/C (second compound 0.316 µM, first compound 0.0316 µM) 62% | viability, T/C (second compound 0.316 µM, first compound 0.1 µM) 55.7% | viability, T/C (second compound 0.316 µM, first compound 0.316 µM) 58.4% | viability, T/C (second compound 0.316 µM, first compound 1 µM) 53.2% | viability, T/C (second compound 0.316 µM, first compound 3.16 µM) 52.4% | viability, T/C (second compound 0.316 µM, first compound 10 µM) 37.9% | viability, T/C (second compound 1 µM, first compound 0.0316 µM) 61.2% | viability, T/C (second compound 1 µM, first compound 0.1 µM) 48.4% | viability, T/C (second compound 1 µM, first compound 0.316 µM) 47.5% | viability, T/C (second compound 1 µM, first compound 1 µM) 51% | viability, T/C (second compound 1 µM, first compound 3.16 µM) 45.3% | viability, T/C (second compound 1 µM, first compound 10 µM) 33.5% | viability, T/C (second compound 3.16 µM, first compound 0.0316 µM) 51.3% | viability, T/C (second compound 3.16 µM, first compound 0.1 µM) 49.1% | viability, T/C (second compound 3.16 µM, first compound 0.316 µM) 36.6% | viability, T/C (second compound 3.16 µM, first compound 1 µM) 54.4% | viability, T/C (second compound 3.16 µM, first compound 3.16 µM) 43.5% | viability, T/C (second compound 3.16 µM, first compound 10 µM) 32.7% | viability, T/C (second compound 10 µM, first compound 0.0316 µM) 41.1% | viability, T/C (second compound 10 µM, first compound 0.1 µM) 38.2% | viability, T/C (second compound 10 µM, first compound 0.316 µM) 37.3% | viability, T/C (second compound 10 µM, first compound 1 µM) 37.5% | viability, T/C (second compound 10 µM, first compound 3.16 µM) 35.1% | viability, T/C (second compound 10 µM, first compound 10 µM) 22.8%
> 10000 nM: IC50 (second compound 0.0316 µM)

CCc1c2c(nc3ccc(O)cc13)-c1cc3c(c(=O)n1C2)COC(=O)[C@]3(O)CC + C=CC(=O)N1CCN(c2nc(OCC3CCCN3C)nc3c(F)c(-c4nc(N)cc(C)c4C(F)(F)F)c(Cl)cc23)C(C)C1
inactive: viability, T/C (second compound 0.00316 µM, first compound 0.000949 µM) 82.8% | viability, T/C (second compound 0.00316 µM, first compound 0.003 µM) 39.5% | viability, T/C (second compound 0.00316 µM, first compound 0.00949 µM) 20.3% | viability, T/C (second compound 0.01 µM, first compound 0.000949 µM) 68.7% | viability, T/C (second compound 0.01 µM, first compound 0.003 µM) 45.3% | viability, T/C (second compound 0.01 µM, first compound 0.00949 µM) 18.4% | viability, T/C (second compound 0.0316 µM, first compound 0.000949 µM) 72.5% | viability, T/C (second compound 0.0316 µM, first compound 0.003 µM) 55.2% | viability, T/C (second compound 0.0316 µM, first compound 0.00949 µM) 13.7% | viability, T/C (second compound 0.1 µM, first compound 0.000949 µM) 63% | viability, T/C (second compound 0.1 µM, first compound 0.003 µM) 47.7% | viability, T/C (second compound 0.1 µM, first compound 0.00949 µM) 15.2% | viability, T/C (second compound 0.316 µM, first compound 0.000949 µM) 83.2% | viability, T/C (second compound 0.316 µM, first compound 0.003 µM) 38% | viability, T/C (second compound 0.316 µM, first compound 0.00949 µM) 13% | viability, T/C (second compound 1 µM, first compound 0.000949 µM) 84.2% | viability, T/C (second compound 1 µM, first compound 0.003 µM) 48.2% | viability, T/C (second compound 1 µM, first compound 0.00949 µM) 13.4%
2.82 nM: IC50 (second compound 1 µM)
active: viability, T/C (second compound 0.00316 µM, first compound 0.03 µM) 7.87% | viability, T/C (second compound 0.00316 µM, first compound 0.0949 µM) 6.75% | viability, T/C (second compound 0.00316 µM, first compound 0.3 µM) 6.61% | viability, T/C (second compound 0.01 µM, first compound 0.03 µM) 8.97% | viability, T/C (second compound 0.01 µM, first compound 0.0949 µM) 8.82% | viability, T/C (second compound 0.01 µM, first compound 0.3 µM) 4.69% | viability, T/C (second compound 0.0316 µM, first compound 0.03 µM) 11.2% | viability, T/C (second compound 0.0316 µM, first compound 0.0949 µM) 8.98% | viability, T/C (second compound 0.0316 µM, first compound 0.3 µM) 5.11% | viability, T/C (second compound 0.1 µM, first compound 0.03 µM) 9.23% | viability, T/C (second compound 0.1 µM, first compound 0.0949 µM) 6.92% | viability, T/C (second compound 0.1 µM, first compound 0.3 µM) 5.21% | viability, T/C (second compound 0.316 µM, first compound 0.03 µM) 6.67% | viability, T/C (second compound 0.316 µM, first compound 0.0949 µM) 7.68% | viability, T/C (second compound 0.316 µM, first compound 0.3 µM) 4.95% | viability, T/C (second compound 1 µM, first compound 0.03 µM) 9.97% | viability, T/C (second compound 1 µM, first compound 0.0949 µM) 6.39% | viability, T/C (second compound 1 µM, first compound 0.3 µM) 4.12%
2.37 nM: IC50 (second compound 0.01 µM)
2.5 nM: IC50 (second compound 0.1 µM)
2.21 nM: IC50 (second compound 0.316 µM)
3.47 nM: IC50 (second compound 0.0316 µM)
2.29 nM: IC50 (second compound 0.00316 µM)
